Results taken from patent US20040072992A1, “Novel peptide capable of specifically acting on biological membrane” (priority 2002, published 2004).
Converted amounts (≈) assume the structure as drawn. Read-outs that look alike come from different tables or passages of the source. Where a SMILES comes first, the peptide text is derived from it. Where no end group is shown, it is not given here.

Legend:
B. subtilis IFO13722 = settings: IFO13722, 18 h
B. sereus IFO3457 = settings: 18 h
S. aureus IFO13276 = settings: IFO13276, 18 h
S. aureus JCM2413 = settings: JCM2413, 18 h
E. coli JCM1649 = settings: JCM1649, 18 h
E. coli CR-3 = settings: CR-3, 18 h
E. coli CE-273 = settings: CE-273, 18 h
S. enteritidis ATCC1891 = settings: ATCC1891, 18 h
S. enteritidis ATC14028 = settings: ATC14028, 18 h
erythrocytes = settings: for Hemolytic property (relative value): red cells of human

| Molecule | MIC (B. subtilis IFO13722) [µM] | MIC (B. sereus IFO3457) [µM] | MIC (S. aureus IFO13276) [µM] | MIC (S. aureus JCM2413) [µM] | MIC (E. coli JCM1649) [µM] | MIC (E. coli CR-3) [µM] | MIC (E. coli CE-273) [µM] | MIC (S. enteritidis ATCC1891) [µM] | MIC (S. enteritidis ATC14028) [µM] | Hemolytic property, in words (erythrocytes) | Hemolytic property (relative value) (erythrocytes; 1 μM) [%] | Hemolytic property (relative value) (erythrocytes; 5 μM) [%] | Hemolytic property (relative value) (erythrocytes; 10 μM) [%] | Hemolytic property (relative value) (erythrocytes; 100 μM) [%] |
| --- | --- | --- | --- | --- | --- | --- | --- | --- | --- | --- | --- | --- | --- | --- |
| CC(C)[C@H](NC(=O)[C@@H](N)CCCCN)C(=O)NCC(=O)O [KVG] (H-Lys-Val-Gly-OH) | >800 | >800 | >800 | 800 (≈ 242 µg/mL) | >800 | 800 (≈ 242 µg/mL) | 800 (≈ 242 µg/mL) | >800 | 800 (≈ 242 µg/mL) | – | – | – | – | – |
| INWKGIAAMAKKLL [mastoparanX, INWKGIAAMAKKLL, reference compound] | 3.1 | 3.1 | 1.56 | 12.5 | 3.1 | 3.1 | 3.1 | 3.1 | 6.3 | high level of hemolytic property | 5.4 | 18.8 | 86 | 93 |
| CC(C)C[C@H](NC(=O)[C@@H](NC(=O)[C@@H](N)CCCNC(=N)N)C(C)C)C(=O)O [RVL] (H-Arg-Val-Leu-OH) | >800 | >800 | >800 | >800 | >800 | 800 (≈ 309 µg/mL) | >800 | >800 | 800 (≈ 309 µg/mL) | – | – | – | – | – |
| KVLALRL [KVL+, KVL ALRL] | >200 | >200 | >200 | >200 | >200 | >200 | 3.1 | >200 | >200 | – | – | – | – | – |
| KNWKGIAGMAKKLLGKNWKLM-NH2 [mast21N] | 3.1 | 3.1 | 12.5 | 12.5 | 3.1 | 3.1 | 3.1 | 6.3 | 6.3 | – | – | – | – | 13 |
| KVLINWKGIAAMAKKII [KVL-mastX, KVL INWKGIAAMAKKII] | 25 | >200 | >200 | 50 | 100 | 50 | 25 | 100 | >200 | – | – | – | – | – |
| RVGINWKGIAAMAKKII [RVG-mastX, RVG INWKGIAAMAKKII] | 50 | >200 | >200 | 200 | >200 | 50 | 50 | 100 | 200 | – | – | – | – | – |
| KVLKVLKVL [KVL3, KVLKVLKVL] | >200 | >200 | >200 | >200 | >200 | >200 | >200 | >200 | >200 | – | – | – | – | – |
| CC(C)[C@H](NC(=O)[C@@H](N)CCCNC(=N)N)C(=O)NCC(=O)O [RVG] (H-Arg-Val-Gly-OH) | >800 | >800 | >800 | 800 (≈ 264 µg/mL) | >800 | 800 (≈ 264 µg/mL) | 800 (≈ 264 µg/mL) | >800 | 800 (≈ 264 µg/mL) | – | – | – | – | – |
| ALRALRALRALRALR [ALR5, ALRALRALRALRALR] | 25 | 100 | 400 | 200 | 100 | – | 100 | 100 | – | – | – | – | – | – |
| RLAWG [Ribo-1, RLAWG] | >800 | >800 | >800 | 800 | >800 | 800 | >800 | >800 | 800 | – | – | – | – | – |
| KNRKGIAGMAKKLLGNKWKLM [mastWR] | 50 | 50 | 50 | 50 | 50 | 25 | 12.5 | 12.5 | 25 | – | – | – | – | – |
| CC(C)C[C@H](NC(=O)[C@@H](NC(=O)[C@@H](N)CCCCN)C(C)C)C(=O)O [KVL] (H-Lys-Val-Leu-OH) | 800 (≈ 287 µg/mL) | 800 (≈ 287 µg/mL) | 800 (≈ 287 µg/mL) | 400 (≈ 143 µg/mL) | >800 | 800 (≈ 287 µg/mL) | 800 (≈ 287 µg/mL) | >800 | 800 (≈ 287 µg/mL) | – | – | – | – | – |
| GWALR [Ribo-2, GWALR] | >800 | >800 | >800 | 800 | >800 | 800 | >800 | 800 | 800 | – | – | – | – | – |
| CC(C)C[C@H](NC(=O)[C@H](C)N)C(=O)N[C@@H](CCCNC(=N)N)C(=O)O [ALR] (H-Ala-Leu-Arg-OH) | >200 | >200 | >200 | >200 | >200 | >200 | >200 | >200 | >200 | – | – | – | – | – |
